Literature values in US7572882B2 (priority 2000, dated 2009).

What was measured:
T helper lymphocytes = details: regardless of HLA type

In the case of aKXVAAWTLKAAa, the “stimulation of the response of T helper lymphocytes” value (T helper lymphocytes) is given as “stimulate the response of T helper lymphocytes from most individuals” and the “binding to HLA-DR alleles” value (HLA-DR alleles) is given as “bind to most HLA-DR alleles”.
